According to article PMC12138978, “Mu Opioid Receptor Positive Allosteric Modulator BMS-986122 Confers Agonist-Dependent G Protein Subtype Signaling Bias” (Biochemistry, 2025):
Several values for one entry are separate records, joined by “and”; a condition that tells them apart may be missing. Identical values can stand only once. Like-named read-outs stand apart in the source and are kept apart here.

Key:
[1] = molecular target: T1, human MOR signaling through Gαi1 (Homo sapiens, UniProt P35372); format: cell-based
T1 construct: host or cells: HEK 293T, transient

[2] = molecular target: T2, human MOR signaling through Gαi3^K349R, E350G mutant (Homo sapiens, UniProt P35372); test: nanoBRET assay, MOR signaling through mutant Gαi3 K349R, E350G; format: cell-based; conditions: orthosteric agonist 7-hydroxymitragynine, read-out: KB (affinity of BMS-986122)
T2 construct: host or cells: HEK 293T, transient
Protocol: (§1) Human embryonic kidney (HEK) 293T cells (ATCC, Manassas, VA) maintained and transfected as described in previous work, with some modifications. Cells were cultured on 0.01% poly-L-lysine (Millipore Sigma, Darmstadt, Germany)-coated 10 cm dishes in Dulbecco’s modified Eagle medium (GIBCO, Grand Island, NY) supplemented with 5% fetal bovine serum, 1% nonessential amino acids, 1 mM sodium pyruvate, and 100 U/mL penicillin/streptomycin, maintained in an incubator at 37 °C in a 5% CO2 atmosphere. Prior to transfection, 3.0 × 10^6 cells were reseeded onto Matrigel-coated (Corning, Inc., Corning NY) 6 cm dishes and incubated for 4 h at 37 °C and 5% CO2. […]
(§2) BRET measurements between mVenus-Gβ1γ2 and masGRK3ct-nLuc for nanoBRET, and Gγ-GFP2 and Gα-rLuc8 for TruPATH, were performed to determine agonist-dependent activation of each Gα protein of interest in the presence and absence of BMS-986122, in live HEK 293T cells. […] For TruPATH, cells were incubated for 30 min at 25 °C prior to luminescence emissions being read at 515 and 410 nm. […]
(§3) This form of the operational model was selected because all parameters are constrained by default to be equal for each data set except for τ, which had no constraints. […] Statistical significance between Δlog(τ) values for each Gα subunit were calculated via one-way ANOVA with Tukey’s posthoc analysis. […]

[3] = molecular target: T3, human MOR signaling through GαoB (Homo sapiens, UniProt P35372); format: cell-based; conditions: for Kb: read-out: KB (affinity of BMS-986122)
T3 construct: host or cells: HEK 293T, transient

[4] = molecular target: T4, human MOR signaling through Gαz (Homo sapiens, UniProt P35372); format: cell-based; conditions: Gαz, up to 10 μM, absence of any orthosteric agonist, no RGS20
T4 construct: host or cells: HEK 293T, transient

[5] = test system: human MOR signaling through different Gα subunits; test: nanoBRET assay, comparison or average across Gα subunits; format: cell-based; conditions: 7-hydroxymitragnine as agonist, 10 μM PAM, relative transduction coefficients compared between Gαi3 and GαoB
[6] = molecular target: T5, human MOR signaling through Gαi2^N346 K mutant (Homo sapiens, UniProt P35372); test: nanoBRET assay, MOR signaling through mutant Gαi2 N346K; format: cell-based; conditions: orthosteric agonist 7-hydroxymitragynine, read-out: KB (affinity of BMS-986122)
T5 construct: host or cells: HEK 293T, transient
Protocol: as §1, §2, §3

[7] = molecular target: T6, human MOR signaling through Gαi3-oBct (Homo sapiens, UniProt P35372); test: nanoBRET assay, MOR signaling through Gαi3-oBct chimera (C-terminus of GαoB); format: cell-based; conditions: orthosteric agonist 7-hydroxymitragynine, read-out: KB (affinity of BMS-986122)
T6 construct: host or cells: HEK 293T, transient
Protocol: as §1, §2, §3

[8] = molecular target: T7, human MOR signaling through Gαi2 (Homo sapiens, UniProt P35372); format: cell-based; conditions: for Kb: read-out: KB (affinity of BMS-986122)
T7 construct: host or cells: HEK 293T, transient

[9] = molecular target: T8, human MOR signaling through Gαz with RGS20 (Homo sapiens, UniProt P35372); test: nanoBRET assay, MOR signaling through Gαz with RGS20 (RGSz1) coexpression; format: cell-based; conditions: RGS20 (RGSz1) co-expressed
T8 construct: host or cells: HEK 293T, transient

MOR = test system: MOR; design: method as in Burford et al.; conditions: endomorphin-1 as orthosteric agonist, allosteric ternary complex model; ref Burford et al.; cited from earlier work
[10] = molecular target: T9, human MOR signaling through GαoA (Homo sapiens, UniProt P35372); format: cell-based
T9 construct: host or cells: HEK 293T, transient

[11] = molecular target: T10, human MOR signaling through Gαi3 (Homo sapiens, UniProt P35372); format: cell-based
T10 construct: host or cells: HEK 293T, transient
T10 sequence (P35372 whole entry): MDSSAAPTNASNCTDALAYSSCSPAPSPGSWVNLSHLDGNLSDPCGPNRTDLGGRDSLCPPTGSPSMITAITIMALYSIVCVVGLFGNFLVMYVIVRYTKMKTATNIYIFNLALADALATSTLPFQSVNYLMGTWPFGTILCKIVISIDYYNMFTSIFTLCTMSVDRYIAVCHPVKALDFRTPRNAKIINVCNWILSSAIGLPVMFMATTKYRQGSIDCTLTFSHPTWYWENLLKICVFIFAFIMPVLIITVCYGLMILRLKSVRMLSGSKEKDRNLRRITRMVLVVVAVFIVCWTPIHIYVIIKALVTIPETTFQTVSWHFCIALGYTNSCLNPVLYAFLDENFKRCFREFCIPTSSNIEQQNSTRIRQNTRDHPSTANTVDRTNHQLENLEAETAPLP
T10 sequence (P08754 2-354 partner limits assumed): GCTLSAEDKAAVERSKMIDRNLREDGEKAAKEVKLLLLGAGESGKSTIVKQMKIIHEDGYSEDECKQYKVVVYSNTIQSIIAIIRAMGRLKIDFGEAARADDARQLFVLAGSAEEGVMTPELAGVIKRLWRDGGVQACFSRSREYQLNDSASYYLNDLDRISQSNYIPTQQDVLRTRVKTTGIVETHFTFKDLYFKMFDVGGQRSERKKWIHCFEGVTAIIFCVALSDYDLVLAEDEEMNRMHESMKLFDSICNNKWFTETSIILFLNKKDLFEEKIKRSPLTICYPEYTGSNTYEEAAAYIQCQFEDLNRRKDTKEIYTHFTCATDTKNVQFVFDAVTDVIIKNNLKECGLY

T3 sequence (P35372 whole entry): as the sequence (P35372 whole entry) above
T3 sequence (P09471 2-354 isoform P09471-2 partner limits assumed): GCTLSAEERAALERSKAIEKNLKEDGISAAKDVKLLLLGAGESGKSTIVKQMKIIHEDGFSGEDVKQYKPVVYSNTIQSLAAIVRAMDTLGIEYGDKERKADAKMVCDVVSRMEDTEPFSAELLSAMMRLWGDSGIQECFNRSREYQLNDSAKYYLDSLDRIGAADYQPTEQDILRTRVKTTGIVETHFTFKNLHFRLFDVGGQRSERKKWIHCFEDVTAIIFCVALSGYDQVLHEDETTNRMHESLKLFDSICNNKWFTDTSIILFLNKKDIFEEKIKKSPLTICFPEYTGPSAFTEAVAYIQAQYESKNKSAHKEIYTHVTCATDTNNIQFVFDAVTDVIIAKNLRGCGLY
T9 sequence (P35372 whole entry): as the sequence (P35372 whole entry) above
T9 sequence (P09471 2-354 partner limits assumed): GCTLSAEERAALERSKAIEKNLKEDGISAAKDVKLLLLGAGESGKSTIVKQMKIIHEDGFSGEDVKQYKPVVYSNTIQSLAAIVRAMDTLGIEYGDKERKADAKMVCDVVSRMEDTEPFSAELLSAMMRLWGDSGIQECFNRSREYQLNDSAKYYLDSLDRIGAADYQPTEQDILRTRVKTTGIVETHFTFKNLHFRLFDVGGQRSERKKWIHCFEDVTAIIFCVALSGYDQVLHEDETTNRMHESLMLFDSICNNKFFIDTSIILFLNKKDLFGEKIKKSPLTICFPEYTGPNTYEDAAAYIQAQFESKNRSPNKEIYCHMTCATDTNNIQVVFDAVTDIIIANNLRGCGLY
T1 sequence (P35372 whole entry): as the sequence (P35372 whole entry) above
T1 sequence (P63096 2-354 partner limits assumed): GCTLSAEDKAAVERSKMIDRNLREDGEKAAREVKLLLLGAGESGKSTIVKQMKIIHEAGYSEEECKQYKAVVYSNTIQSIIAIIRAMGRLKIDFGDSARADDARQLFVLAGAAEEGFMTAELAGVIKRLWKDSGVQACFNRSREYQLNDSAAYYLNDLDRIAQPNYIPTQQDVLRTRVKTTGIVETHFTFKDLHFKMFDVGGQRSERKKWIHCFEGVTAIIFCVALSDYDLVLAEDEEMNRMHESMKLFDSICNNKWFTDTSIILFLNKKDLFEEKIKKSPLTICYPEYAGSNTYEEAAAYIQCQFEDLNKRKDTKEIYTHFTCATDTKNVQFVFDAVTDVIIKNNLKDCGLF
T7 sequence (P35372 whole entry): as the sequence (P35372 whole entry) above
T7 sequence (P04899 2-355 partner limits assumed): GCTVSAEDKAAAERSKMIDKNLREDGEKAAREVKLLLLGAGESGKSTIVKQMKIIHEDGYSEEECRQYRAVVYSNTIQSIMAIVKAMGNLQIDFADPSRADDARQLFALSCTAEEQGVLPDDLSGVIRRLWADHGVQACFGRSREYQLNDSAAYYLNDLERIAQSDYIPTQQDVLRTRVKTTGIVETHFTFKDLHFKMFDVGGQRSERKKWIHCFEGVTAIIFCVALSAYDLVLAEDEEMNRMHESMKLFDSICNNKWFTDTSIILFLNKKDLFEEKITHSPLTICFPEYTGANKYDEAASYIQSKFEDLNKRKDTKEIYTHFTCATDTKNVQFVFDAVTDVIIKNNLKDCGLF
T6 sequence (P35372 whole entry): as the sequence (P35372 whole entry) above
T6 sequence (P08754 with tags, fused parts or gaps K345A/N346K/K349R/E350G partner limits assumed): as the sequence (P08754 2-354 partner limits assumed) above, with K344A, N345K, K348R, E349G counted along it
T4 sequence (P35372 whole entry): as the sequence (P35372 whole entry) above
T4 sequence (P19086 2-355 partner limits assumed): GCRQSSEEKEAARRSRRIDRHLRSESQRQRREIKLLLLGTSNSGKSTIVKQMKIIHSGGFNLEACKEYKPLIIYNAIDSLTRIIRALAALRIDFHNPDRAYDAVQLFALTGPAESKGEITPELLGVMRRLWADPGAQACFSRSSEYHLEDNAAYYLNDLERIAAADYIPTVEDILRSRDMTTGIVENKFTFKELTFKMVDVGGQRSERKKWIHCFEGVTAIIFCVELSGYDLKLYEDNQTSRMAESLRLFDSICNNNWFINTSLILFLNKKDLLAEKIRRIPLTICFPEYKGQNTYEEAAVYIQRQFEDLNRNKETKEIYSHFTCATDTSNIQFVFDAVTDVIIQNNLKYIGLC
T5 sequence (P35372 whole entry, stated change not applied): as the sequence (P35372 whole entry) above
T5 sequence (P04899 with tags, fused parts or gaps N347K partner): as the sequence (P04899 2-355 partner limits assumed) above, with N346K counted along it
T8 sequence (P35372 whole entry): as the sequence (P35372 whole entry) above
T8 sequence (P19086 2-355 partner limits assumed): as the sequence (P19086 2-355 partner limits assumed) above
T2 sequence (P35372 whole entry, stated change not applied): as the sequence (P35372 whole entry) above
T2 sequence (P08754 with tags, fused parts or gaps K349R/E350G partner): as the sequence (P08754 2-354 partner limits assumed) above, with K348R, E349G counted along it

## COc1ccc(C2SCCN2S(=O)(=O)c2ccc(Cl)cc2)cc1Br (stereo not drawn) [BMS-986122]
[1]
  α (affinity cooperativity factor of BMS-986122): 5.0 ± 0.2 and 6.9 ± 0.9
  β (efficacy cooperativity factor of BMS-986122): 10 ± 0.8
[1]; Gαi1, up to 10 μM, absence of any orthosteric agonist
  Response of PAM alone (allosteric agonism): no response
[1]; read-out: KB (affinity of BMS-986122)
  Kb: 2500 nM and 3400 nM
[2]
  Kb: 2800 ± 400 nM
[3]
  β (efficacy cooperativity factor of BMS-986122): 4.2 ± 0.8
  Kb: 620 ± 180 nM
[3]; GαoB (WT), orthosteric agonist 7-Hydroxymitragynine
  Kb: 540 ± 100 nM
[3]; GαoB, BMS-986122 titrated in presence of 10 μM 7-hydroxymitragynine
  Hill coefficient of R50 curve: 3.0
[3]; GαoB, BMS-986122 titrated in presence of constant 10 μM 7-hydroxymitragynine, read-out: R50 (concentration of PAM which gives a half-maximal response)
  EC50: 670 ± 110 nM
[3]; GαoB, orthosteric agonist 7-Hydroxymitragynine, functional allosteric model
  β (efficacy cooperativity factor of BMS-986122): 15 ± 4.2
[3]; GαoB, up to 10 μM, absence of any orthosteric agonist
  Response of PAM alone (allosteric agonism): no response
[4]
  Emax of PAM alone (allosteric agonism): 21 ± 2%
[5]
  ΔΔlog(τ)oB-i3: 0.708
[6]
  Kb: 690 ± 60 nM
[7]
  Kb: 700 ± 60 nM
[8]
  α (affinity cooperativity factor of BMS-986122): 5.9 ± 0.6 and 3.2 ± 0.3
  β (efficacy cooperativity factor of BMS-986122): 3.3 ± 0.3
  Kb: 2400 nM and 1500 nM and 1900 nM
[8]; Gαi2 (WT), orthosteric agonist 7-Hydroxymitragynine
  Kb: 3100 ± 700 nM
[8]; Gαi2, orthosteric agonist 7-Hydroxymitragynine, functional allosteric model
  β (efficacy cooperativity factor of BMS-986122): 10 ± 2.8
[8]; Gαi2, up to 10 μM, absence of any orthosteric agonist
  Response of PAM alone (allosteric agonism): no response
[9]
  Allosteric agonism of PAM alone with RGS20 co-expression: effectively eliminate the allosteric agonism
MOR
  Affinity cooperativity factor α: 7.0
  Kb: 5000 nM
[10]
  α (affinity cooperativity factor of BMS-986122): 7.1 ± 1.0 and 4.3 ± 0.7
  β (efficacy cooperativity factor of BMS-986122): 4.2 ± 0.3
[10]; GαoA, orthosteric agonist 7-Hydroxymitragynine, functional allosteric model
  β (efficacy cooperativity factor of BMS-986122): 12 ± 1.8
[10]; GαoA, orthosteric agonist 7-Hydroxymitragynine, read-out: KB (affinity of BMS-986122)
  Kb: 8000 ± 200 nM
[10]; GαoA, up to 10 μM, absence of any orthosteric agonist
  Response of PAM alone (allosteric agonism): no response
[11]; Gαi3 (WT), orthosteric agonist 7-Hydroxymitragynine, read-out: KB (affinity of BMS-986122)
  Kb: 2300 ± 800 nM
[11]; Gαi3, orthosteric agonist 7-Hydroxymitragynine, functional allosteric model
  β (efficacy cooperativity factor of BMS-986122): 5.9 ± 1.1
[11]; Gαi3, up to 10 μM, absence of any orthosteric agonist
  Response of PAM alone (allosteric agonism): no response
